Patent publication US6702996B1, “Method for investigating the suitability of a material as a medicament” (Aventis Pharma Deutschland GmbH, priority 1999, dated 2004)

Test system: C. elegans
Assay: Retraction reflex of nematodes to a local thermal stimulus (laser, head region)
Type: in vivo, Caenorhabditis elegans
Settings: for effect on the reflex behaviour of the nematode: nematodes exposed to the substance, local thermal stimulus
Protocol: The inventors' experiments have thus shown that the use of C. elegans as an animal model for studying materials in terms of their suitability as medicaments in humans or other mammals allows reliable predictions to be made, especially where the sensation or perception of pain is involved, both in terms of algesic or hyperalgesic effects and in terms of analgesic effects. […] A normal reflex to a thermal stimulus of e.g. 32-40° C. in the head region of the nematode can be described as follows:
I) Rapid reflexive retraction by at least one whole body length and subsequent orientation of the head in another direction.
II) Rapid reflexive retraction, but without backward motion.
The well-fed test animals (C. elegans) (about 100; length about 1.3 mm; diameter 80 μm) were irradiated in the experiments with an infrared laser (685±0.5 nm). The laser beam was always focused on a spot of diameter 30 μm in the head region of the animal, a local warming to 33.5±1° C. being observed on an agar surface. To examine the animals' behaviour in greater detail, they were exposed to a nociceptive stimulus, after which they were incubated in capsaicin at concentrations varying from 1 to 100 μM. A strong reaction was still being observed 1 h after incubation.

In the case of `COc1cc(CNC(=O)CCCC/C=C/C(C)C)ccc1O` [capsaicin], the “reaction (intensified reflex as in I)) in mutants” value (C. elegans mutants whose normal behaviour is that only 70% of the animals react as in I)) is reported as “observed even more clearly”, the “animals exhibiting a reflex as in I) (rapid reflexive retraction by at least one whole body length)” value (incubated in capsaicin 1 to 100 μM, 1 h after incubation, laser warming to 33.5±1° C. in head region, control group 80%) is reported as “over 90%” and the “effect on the reflex behaviour of the nematode” value is reported as “can be influenced”.

In the case of `Oc1cc2c(cc1O)CN(C(=S)NCCc1ccc(Cl)cc1)CCC2` [capzazepine], the “effect on the reflex behaviour of the nematode” value is reported as “can be influenced”.
